Measured values published in patent US6063782A, “Pyrrolopyridazine derivatives” (Sankyo Company, Limited, priority 1994, dated 2000).
Where a name gives a salt, the structure may show the parent alone.

What was measured:
[1] = target: proton.potassium-adenosine triphosphatase (H+.K+-ATPase) (Sus scrofa, UniProt P19156); assay: Proton.potassium-adenosine triphosphatase (H+.K+-ATPase) inhibition test; assay type: biochemical; conditions: microsomal fraction of porcine gastric mucosa, pH=6.85, 37° C.; result given in words only
proton.potassium-adenosine triphosphatase (H+.K+-ATPase), sequence (P19156 whole entry): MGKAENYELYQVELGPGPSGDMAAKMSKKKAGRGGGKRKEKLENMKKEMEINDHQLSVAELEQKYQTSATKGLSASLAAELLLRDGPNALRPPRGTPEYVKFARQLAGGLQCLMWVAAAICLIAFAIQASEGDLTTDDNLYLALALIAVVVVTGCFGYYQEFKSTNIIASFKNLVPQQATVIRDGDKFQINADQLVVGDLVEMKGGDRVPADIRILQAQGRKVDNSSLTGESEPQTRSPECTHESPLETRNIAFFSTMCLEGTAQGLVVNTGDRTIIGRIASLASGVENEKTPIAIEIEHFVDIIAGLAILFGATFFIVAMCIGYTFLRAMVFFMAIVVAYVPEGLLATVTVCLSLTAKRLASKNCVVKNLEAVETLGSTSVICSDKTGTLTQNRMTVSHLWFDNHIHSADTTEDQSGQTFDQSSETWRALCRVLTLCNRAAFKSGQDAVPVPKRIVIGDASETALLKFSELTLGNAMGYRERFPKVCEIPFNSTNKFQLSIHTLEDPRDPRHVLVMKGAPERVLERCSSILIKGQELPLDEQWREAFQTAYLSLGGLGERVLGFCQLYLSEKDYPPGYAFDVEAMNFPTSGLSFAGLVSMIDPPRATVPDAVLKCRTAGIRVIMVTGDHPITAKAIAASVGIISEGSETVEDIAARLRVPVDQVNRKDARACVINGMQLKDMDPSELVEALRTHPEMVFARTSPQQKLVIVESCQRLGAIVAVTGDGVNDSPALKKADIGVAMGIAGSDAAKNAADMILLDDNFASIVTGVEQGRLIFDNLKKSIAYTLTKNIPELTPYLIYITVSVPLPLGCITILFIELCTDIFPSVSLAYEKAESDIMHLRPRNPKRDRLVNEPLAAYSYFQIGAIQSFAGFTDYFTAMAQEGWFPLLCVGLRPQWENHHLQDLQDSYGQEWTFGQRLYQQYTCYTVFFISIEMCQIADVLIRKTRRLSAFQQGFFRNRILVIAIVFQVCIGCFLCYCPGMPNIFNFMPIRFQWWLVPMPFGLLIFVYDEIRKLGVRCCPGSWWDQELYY
proton.potassium-adenosine triphosphatase (H+.K+-ATPase), sequence (P18434 whole entry partner): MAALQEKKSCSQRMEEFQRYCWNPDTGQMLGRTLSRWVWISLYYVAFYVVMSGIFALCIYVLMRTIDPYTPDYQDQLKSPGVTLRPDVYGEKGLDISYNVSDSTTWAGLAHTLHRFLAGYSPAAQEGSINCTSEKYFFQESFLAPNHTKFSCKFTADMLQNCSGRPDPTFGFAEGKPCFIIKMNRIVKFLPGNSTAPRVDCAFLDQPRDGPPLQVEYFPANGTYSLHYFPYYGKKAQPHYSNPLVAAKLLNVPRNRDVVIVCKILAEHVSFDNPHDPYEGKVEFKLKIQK
Procedure: Proton.potassium-adenosine triphosphatase (H^+.K^+ -ATPase) activation test
According to the method reported by Sachs et al. [J. Biol. Chem., 251, 7690 (1976)], a microsomal fraction obtained from homogenized fresh porcine gastric mucosa by density gradient ultracentrifugation was used as the proton.potassium-adenosine triphosphatase preparation, 10 μl of a solution of a test compound in dimethylsulfoxide were added to 0.75 ml of 70 mM tris-HCl buffer solution (magnesium chloride 5 mM, potassium chloride 20 mM and pH=6.85) containing from 30 to 80 μg/ml (in terms of protein concentration) of the enzyme preparation and the mixture was incubated for 45 minutes at 37° C. with shaking at 200 times per minute. The enzyme reaction was initiated by adding 0.25 ml of 8 mM disodium adenosine triphosphate solution. After 20 minutes of the reaction time, the reaction was stopped by adding 1 ml of a 10k trichloroacetic acid-active carbon (100 mg) solution. The reaction solution was centrifuged (4° C., 3000 rpm, 15 minutes) and the inorganic phosphate in the supernatant prepared from adenosine triphosphate by hydrolysis was measured by colorimetry, according to the method of Yoda and Hokin [Biochem. Biophys. Res. Commun., 40, 880 (1970)]. In a similar manner, the amount of inorganic phosphate was measured in a reaction solution in the absence of potassium chloride. From the difference between the phosphate amounts in the presence and absence of potassium chloride, the proton-potassium-adenosine triphosphatase activity was calculated. Based on the activity value in the control and the values in the test compound at the various concentrations tested, the inhibiting rates (%) and then the 50? inhibiting concentrations (IC50) to proton.potassium-adenosine triphosphatase activity were obtained.

gastric acid secretion = assay: Gastric acid secretion activity test using pyloric ligation in rats (Shay rat method); assay type: in vivo; conditions: male SD rats, 20 mg/kg injected into the duodenal region, 4 hours, result given in words only
Procedure: Gastric acid secretion activity test using pyloric ligation in rats (Shay rat method)
Pyloric ligation was conducted based on the method of Shay et al. [Gastroenterology, 5, 43 (1945)]. Male rats of SD strain were fasted for 24 hours; their abdomens were sectioned during anesthesia under ether. The duodenal and pyloric regions were exposed and the latter was ligated. A solution of a test compound (10 mg/ml) prepared by use of 1.5w parts of dimethylacetamide, 68.5% parts of polyethyleneglycol (PEG-400) and 30% parts of physiological saline solution, was injected into the duodenal region for the dose to be 20 mg/kg by use of a 1-ml syringe and an injection needle (26G). After injection of the test compound, the abdominal region was sutured. The animals were allowed to a stand for 4 hours without feeding food and water and then sacrified with carbon dioxide gas. The stomach was excised and gastric juice was gathered. The gastric juice sample was centrifuged (4° C., 2500 rpm, 15 minutes). The amount of the supernatant was measured to be as the gastric secretion. The acidity of the gastric juice was determined by the amount (ml) of 0.01 N sodium hydroxide solution required for titration of 0.1 ml of the supernatant to pH 7.0 by use of-an auto-titrating apparatus. The value of gastric acid secretion was calculated from the value of gastric secretion and the acidity of gastric juice. The inhibiting rate was obtained from the values of gastric acid secretion of the control group and of the administered group.

[2] = test system: Helicobacter pylori strains 9470, 9472 and 9474; assay: Antibacterial activity against Helicobacter pylori; assay type: cell-based; conditions: strains 9470, 9472 and 9474, 37° C., 3 days, slightly aerobic; result given in words only
Procedure: Antibacterial activity against Helicobacter pylori The antibacterial activity of the compounds of the present invention were evaluated by measuring the minimum inhibitory concentration values (MIC) of the present compounds against Helicobacter pylori strains 9470, 9472 and 9474. These strains of Helicobacter pylori were incubated for 4 days on a plate medium. The medium was prepared by dissolving brain heart infusion agar (Product of DIFCO) in a defined amount of distilled water, by sterilization in an autoclave, injecting horse blood (Product of Nihon Seibutsu Zairyo Co.) into each plate for the medium to contain 7% of the blood and by solidifying. Under slightly aerobic conditions, Helicobacter pylori cultivated at 37° C. for 4 days was suspended in a physiological saline solution for its inocular size to be about 10^8 CFU/ml. The suspension was diluted 100 times, and about 10 μl of the diluted suspension was inoculated on a medium for MIC determination. The medium for MIC determination used had the same compounds as those for preculture. […] In a similar way to the preculture, Helicobacter pylori was cultivated at 37° C. for 3 days under slightly aerobic conditions. […] The minimum concentration which gave no bacterial growth was regarded as MIC of the compound of the present invention.

Structure (SMILES)	inhibiting concentrations (IC50) to proton.potassium-adenosine triphosphatase activity [1]	inhibiting rate of gastric acid secretion (gastric acid secretion)	minimum inhibitory concentration (MIC) against Helicobacter pylori [2]
C=CCn1c(C)c(C)c2cnnc(OCc3ccc(Cl)cc3Cl)c21 [Example 17, 7-(2,4-Dichlorobenzyloxy)-2,3-dimethyl-1-(2-propenyl)pyrrolo[2,3-d]pyridazine]	excellent activity	excellent activity	excellent antibacterial activity
CC=CCn1c(C)c(C)c2cnnc(OCc3c(Cl)cccc3Cl)c21 [Example 49, 1-(2-Butenyl)-7-(2,6-dichlorobenzyloxy)-2,3-dimethylpyrrolo[2,3-d]pyridazine]	excellent activity	–	excellent antibacterial activity
C=CCn1c(C)c(C)c2cnnc(OCc3ccc(F)cc3F)c21 [Example 9, 7-(2,4-Difluorobenzyloxy)-2,3-dimethyl-1-(2-propenyl)pyrrolo[2,3-d]pyridazine]	excellent activity	excellent activity	excellent antibacterial activity
CC=CCn1c(C)c(C)c2cnnc(OCc3ccc(F)cc3F)c21 [Example 22, 1-(2-Butenyl)-7-(2,4-difluorobenzyloxy)-2,3-dimethylpyrrolo[2,3-d]pyridazine]	excellent activity	excellent activity	excellent antibacterial activity
Cc1c(C)n(C[C@@H]2C[C@H]2C)c2c(OCc3ccc(F)cc3F)nncc12 (relative stereo) [Example 58, 7-(2,4-Difluorobenzyloxy)-2,3-dimethyl-1-(2-methylcyclopropylmethyl)pyrrolo[2,3-d]pyridazine]	excellent activity	excellent activity	excellent antibacterial activity
Cc1c(C)n(C[C@@H]2C[C@H]2C)c2c(OCc3ccc(F)cc3)nncc12 (relative stereo) [Example 57, 7-(4-Fluorobenzyloxy)-2,3-dimethyl-1-(2-methylcyclopropylmethyl)pyrrolo[2,3-d]pyridazine]	excellent activity	excellent activity	excellent antibacterial activity
C=CCn1c(C)c(C)c2cnnc(OCc3ccc(Cl)cc3)c21 [Example 12, 7-(4-Chlorobenzyloxy)-2,3-dimethyl-1-(2-propenyl)povrrolo[2,3-d]pyridazine]	–	excellent activity	excellent antibacterial activity
Cc1c(C)n(CC2CC2)c2c(OCc3ccccc3)nncc12 [Example 4, 7-Benzyloxy-1-cyclopropylmethyl-2,3-dimethylpyrrolo[2,3-d]pyridazine]	excellent activity	–	excellent antibacterial activity
C/C=C/n1c(C)c(C)c2cnnc(OCc3ccc(F)cc3)c21 [Example 44, 7-(4-Fluorobenzyloxy)-2,3-dimethyl-1-(1-propenyl)-pyrrolo[2,3-d]pyridazine]	excellent activity	excellent activity	excellent antibacterial activity
CC=CCn1c(C)c(C)c2cnnc(OCc3ccc(Cl)cc3Cl)c21 [Example 21, 1-(2-Butenyl)-7-(2,4-dichlorobenzyloxy)-2,3-dimethylpyrrolo[2,3-d]pyridazine]	excellent activity	–	excellent antibacterial activity
Cc1c(C)n(CC2CC2)c2c(OCc3ccc(F)cc3)nncc12 [Example 35, 1-Cyclopropylmethyl-7-(4-fluorobenzyloxy)-2,3-dimethylpyrrolo[2,3-d]pyridazine]	excellent activity	excellent activity	–
Cc1c(C)n(C2CC2)c2c(OCc3ccccc3)nncc12 [Example 16, 7-Benzyloxy-1-cyclopropyl-2,3-dimethylpyrrolo[2,3-d]pyridazine]	–	excellent activity	excellent antibacterial activity
C=C(C)Cn1c(C)c(C)c2cnnc(OCc3ccccc3)c21 [Example 14, 7-Benzyloxy-2,3-dimethyl-1-(2-methyl-2-propenyl)-ovrrolo[2,3-d]pyridazine]	–	excellent activity	excellent antibacterial activity
C=CCn1c(C)c(C)c2cnnc(OCc3ccc(F)cc3)c21 [Example 7, 7-(4-Fluorobenzyloxy)-2,3-dimethyl-1-(2-propenyl)pyrrolo[2,3-d]pyridazine]	excellent activity	excellent activity	excellent antibacterial activity
CC=CCn1c(C)c(C)c2c[n+]([O-])nc(OCc3ccc(F)cc3)c21 [Example 75, 1-(2-Butenyl)-7-(4-fluorobenzyloxy)-2,3-dimethylpyrrolo[2,3-d]pyridazine-5-oxide]	excellent activity	–	excellent antibacterial activity
C=CCn1c(C)c(C)c2cnnc(OCc3ccccc3)c21 [Example 3, 7-Benzyloxy-2,3-dimethyl-1-(2-propenyl)pyrrolo[2,3-d]pyridazine]	–	excellent activity	excellent antibacterial activity
C/C=C/Cn1c(C)c(C)c2cnnc(OCc3ccc(F)cc3)c21 [Example 74, 1-(2-Butenyl)-7-(4-fluorobenzyloxy)-2,3-dimethylpyrrolo[2,3-d]pyridazine hydrochloride]	excellent activity	–	–
CC=CCn1c(C)c(C)c2cnnc(OCc3ccc(Cl)cc3F)c21 [Example 48, 1-(2-Butenyl)-7-(4-chloro-2-fluorobenzyloxy)-2,3-dimethylpyrrolo[2,3-d]pyridazine]	excellent activity	excellent activity	excellent antibacterial activity
CC=CCn1c(C)c(C)c2c[n+]([O-])nc(OCc3ccc(F)cc3F)c21 [Example 76, 1-(2-Butenyl)--7-(2,4-difluorobenzyloxy)-2,3-dimethylpyrrolo[2,3-d]pyridazine-5-oxide]	excellent activity	–	excellent antibacterial activity
